Data: patent publication US8536407B2, “Heat resistant plants and plant tissues comprising a variant adenosine diphosphate glucose pyrophosphorylase small subunit protein and methods of use thereof” (University of Florida Research Foundation, Inc., priority 2008, dated 2013)
Entries after “also recorded” stand apart in the source; their conditions may differ.

Experiments:
[1] = target: T1, maize endosperm ADP-glucose pyrophosphorylase (AGPase) variant BT2-TI/SH2, small subunit BT2 with Thr462 to Ile (TI, SEQ ID NO:2) complexed with wild type SH2 (Zea mays, UniProt P55241+Q947C0, T462I); test: Kinetic and allosteric characterization of purified recombinant AGPase, forward direction (BT2-TI/SH2); assay type: biochemical
T1 sequence (Q947C0 1-475 T462I): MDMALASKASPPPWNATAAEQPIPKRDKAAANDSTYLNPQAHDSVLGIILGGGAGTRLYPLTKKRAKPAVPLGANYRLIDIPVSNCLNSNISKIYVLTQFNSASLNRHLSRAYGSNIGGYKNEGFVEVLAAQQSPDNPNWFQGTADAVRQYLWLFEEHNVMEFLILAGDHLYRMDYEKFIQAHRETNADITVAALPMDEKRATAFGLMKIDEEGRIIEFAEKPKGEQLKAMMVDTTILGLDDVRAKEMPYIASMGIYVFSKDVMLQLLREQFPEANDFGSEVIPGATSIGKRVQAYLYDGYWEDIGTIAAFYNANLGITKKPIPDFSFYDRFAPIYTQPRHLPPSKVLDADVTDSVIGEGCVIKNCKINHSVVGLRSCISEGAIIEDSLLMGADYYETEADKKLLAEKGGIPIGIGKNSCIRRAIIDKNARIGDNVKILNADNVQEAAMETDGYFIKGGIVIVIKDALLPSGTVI
T1 sequence (P55241 46-516): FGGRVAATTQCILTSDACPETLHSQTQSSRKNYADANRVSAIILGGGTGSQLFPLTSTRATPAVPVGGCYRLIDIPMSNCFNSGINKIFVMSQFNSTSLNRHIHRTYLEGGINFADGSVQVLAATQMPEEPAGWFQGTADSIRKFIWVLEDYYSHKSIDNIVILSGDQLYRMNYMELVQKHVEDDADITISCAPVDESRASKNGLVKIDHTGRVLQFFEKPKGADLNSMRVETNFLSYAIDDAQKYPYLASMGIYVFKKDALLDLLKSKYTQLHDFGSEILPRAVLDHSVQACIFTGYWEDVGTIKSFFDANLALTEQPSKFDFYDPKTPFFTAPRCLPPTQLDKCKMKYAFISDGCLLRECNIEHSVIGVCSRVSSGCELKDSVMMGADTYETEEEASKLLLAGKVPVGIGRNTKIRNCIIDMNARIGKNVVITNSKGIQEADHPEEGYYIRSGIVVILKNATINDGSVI
Method: (§1) The following steps were conducted at 4° C.
(§2) The reaction was stopped by boiling for 2 min. […] NADH concentration was estimated by absorbance at 340 nm.
A mutant Bt2 library was created by error-prone PCR. The mutational load was ˜2 non-synonymous mutations per clone (Georgelis et al. 2007). The mutants were expressed in E. coli along with a wildtype Sh2 gene. Approximately 50,000 colonies were screened for glycogen production. Ten dark staining colonies were picked. The two darkest staining Bt2 mutants were sequenced. Both had the same non-synonymous mutation resulting in a change of amino acid 462 from threonine to isoleucine (TI). The threonine in that position is absolutely conserved among the higher plant small subunits (data not shown).
Ki's are expressed as mean (95% confidence interval). All other values are expressed as mean±standard deviation.

[2] = target: ADP-glucose pyrophosphorylase (AGPase) MP/SH2, mosaic small subunit MP (first 200 amino acids of maize BT2 and last 275 amino acids of potato tuber small …)
Method: AGPase was desalted by using Zeba Micro Desalt Spin Columns (Pierce) before assaying. AGPase was exchanged into 50 mM HEPES, 5 mM MgCl2, 0.5 mM EDTA and 0.5 mg/mL BSA (for stability).
The reaction was stopped by boiling for 2 min. PPi was estimated by coupling the reaction to a reduction in NADH concentration using 300 μl of coupling reagent. The coupling reagent contained 25 mM imidazole pH 7.4, 4 mM MgCl2, 1 mM EDTA, 0.2 mM NADH, 0.725U aldolase, 0.4U triose phosphate isomerase, 0.6U glycerophosphate dehydrogenase, 1 mM fructose 6-phosphate and 0.8 μg of pyrophosphate dependent phosphofructokinase (PPi-PFK). […] NADH concentration was estimated by absorbance at 340 nm. PPi concentration was calculated by a standard curve developed by using various amounts of PPi instead of AGPase. […] The kinetic constants of AGPase were calculated by Prism 4.0 (Graph Pad, San Diego Calif.).
All other values are expressed as mean±standard deviation. The specific activity of AGPase in the absence of 3-PGA is expressed as a percentage of the specific activity in the presence of 10 mM of 3-PGA (mean±standard error).

[3] = target: T2, maize endosperm ADP-glucose pyrophosphorylase (AGPase) BT2/SH2, wild type small subunit BT2 complexed with wild type large subunit SH2 (Zea mays, UniProt P55241+Q947C0); test: Kinetic and allosteric characterization of purified recombinant AGPase, forward direction (BT2/SH2); assay type: biochemical; conditions: 1 mM ATP, 2 mM G-1-P, 2.5 mM 3-PGA, mean (95% confidence interval), read-out: Ki Pi
T2 sequence (Q947C0 1-475): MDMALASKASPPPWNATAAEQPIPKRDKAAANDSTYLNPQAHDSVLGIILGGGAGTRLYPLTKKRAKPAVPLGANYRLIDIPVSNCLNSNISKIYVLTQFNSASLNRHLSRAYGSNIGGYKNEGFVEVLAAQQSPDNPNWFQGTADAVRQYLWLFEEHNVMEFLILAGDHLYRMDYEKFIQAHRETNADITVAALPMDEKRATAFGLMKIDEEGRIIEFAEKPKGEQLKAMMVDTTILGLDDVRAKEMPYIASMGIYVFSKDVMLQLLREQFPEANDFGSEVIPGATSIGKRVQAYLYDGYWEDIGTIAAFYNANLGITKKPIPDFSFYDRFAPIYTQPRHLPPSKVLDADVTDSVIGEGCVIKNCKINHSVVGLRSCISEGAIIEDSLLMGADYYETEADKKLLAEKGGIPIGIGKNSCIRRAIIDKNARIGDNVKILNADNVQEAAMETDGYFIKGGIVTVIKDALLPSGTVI
T2 sequence (P55241 46-516): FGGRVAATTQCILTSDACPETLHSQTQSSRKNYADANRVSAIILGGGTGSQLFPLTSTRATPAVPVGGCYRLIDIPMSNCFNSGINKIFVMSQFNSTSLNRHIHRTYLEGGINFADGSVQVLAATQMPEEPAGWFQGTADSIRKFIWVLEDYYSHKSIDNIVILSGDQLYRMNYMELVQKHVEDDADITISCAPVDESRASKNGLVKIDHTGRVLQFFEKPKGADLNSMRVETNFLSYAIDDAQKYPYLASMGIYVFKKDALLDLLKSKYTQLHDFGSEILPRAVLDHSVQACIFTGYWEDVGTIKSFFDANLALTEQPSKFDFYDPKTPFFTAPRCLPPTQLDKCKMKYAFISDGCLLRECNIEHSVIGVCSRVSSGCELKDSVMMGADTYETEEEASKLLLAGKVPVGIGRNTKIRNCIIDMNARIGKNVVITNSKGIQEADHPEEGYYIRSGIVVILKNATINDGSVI
Method: as §1, §2
(§3) All other values are expressed as mean±standard deviation.

[4] = target: ADP-glucose pyrophosphorylase (AGPase) variant MP-TI/SH2, maize/potato mosaic small subunit MP with the TI mutation (threonine to isoleucine at position …); test: Kinetic and allosteric characterization of purified recombinant AGPase, forward direction (MP-TI/SH2); assay type: biochemical, maize (Zea mays) / potato tuber; conditions: 1 mM ATP, 2 mM G-1-P, 2.5 mM 3-PGA, mean (95% confidence interval), read-out: Ki Pi
Method: as §1, §2, §3

SH2 = target: T3, SH2 (Zea mays, UniProt P55241); test: Yeast two hybrid, quantitative β-galactosidase assay of subunit-subunit interactions; assay type: cell-based, maize; conditions: SH2 as bait, small subunit as prey; listed as TI
T3 construct: expressed in transfected cells
T3 sequence (P55241 46-516): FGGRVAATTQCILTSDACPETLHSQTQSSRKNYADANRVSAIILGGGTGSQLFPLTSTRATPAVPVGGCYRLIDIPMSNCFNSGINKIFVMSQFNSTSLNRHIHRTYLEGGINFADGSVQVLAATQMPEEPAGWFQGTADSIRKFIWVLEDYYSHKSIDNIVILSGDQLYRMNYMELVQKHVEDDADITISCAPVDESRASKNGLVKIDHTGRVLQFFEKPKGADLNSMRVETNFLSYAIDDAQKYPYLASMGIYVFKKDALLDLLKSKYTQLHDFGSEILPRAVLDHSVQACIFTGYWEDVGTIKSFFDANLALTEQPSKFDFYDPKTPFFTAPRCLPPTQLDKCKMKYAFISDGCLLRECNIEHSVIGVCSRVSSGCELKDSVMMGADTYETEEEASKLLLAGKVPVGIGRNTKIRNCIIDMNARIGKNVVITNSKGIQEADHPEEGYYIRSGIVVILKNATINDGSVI
Method: Yeast transformations and a β-galactosidase assay were conducted as described by Greene and Hannah (1998b). The only modification was the use of pGBKT7 and pGADT7 as vectors for the bait and the prey respectively. pGBKT7-53 and pGADT7-T plasmids were used as a positive control.

maize endosperm AGPase = test: Kinetic characterization of purified recombinant AGPase variants, forward direction; assay type: biochemical; conditions: compared to BT2/SH2
Method: as §1, §2, §3

E. coli cells = test: Glycogen produced by E. coli cells expressing AGPase subunits; assay type: cell-based; conditions: subunit expressed with SH2 or alone (homotetramer)
Description: A bacterial expression system (Iglesias et al., 1993) allowed us to randomly mutagenize maize endosperm AGPase genes and score AGPase activity in a fast and efficient way by exposing plates to iodine vapors as described below. The E. coli system is ideal for studying plant AGPases for a number of reasons discussed in Georgelis et al. (2007).
Glycogen synthesis was detected by production of brown staining colonies following exposure to iodine vapors. […] (Govons et al., 1969). The colonies were exposed to iodine vapors for 1 min. […] AGPase variants staining darker than wildtype were selected for further study.
Glycogen quantitation was performed by phenol reaction (Hanson and Phillips, 1981). In brief, glycogen was extracted from 1.6 ml of E. coli cells (OD600=2.0) grown in LB containing 2% w/v glucose by boiling for 3 hours in 50% w/v KOH. Glycogen was then precipitated by adding ethanol to 70% v/v and centrifuging at 10000×g for 10 min. After pellet drying, 200 μl de-ionized water, 200 μl of 5% w/v phenol and 1 mL of concentrated sulfuric acid were added. Glycogen was estimated by the absorbance at 488 nm.

Molecule: O=P(O)(O)O [Pi, inorganic phosphate]
- Ki ([1]; BT2-TI/SH2, 1 mM ATP, 2 mM G-1-P, 2.5 mM 3-PGA, mean (95% confidence interval), read-out: Ki Pi): 4.07 mM
- Ki for Pi (compared with BT2/SH2, in words) ([1]; BT2-TI/SH2 versus BT2/SH2): indistinguishable from BT2/SH2
- affinity for Pi (in words) ([2]; MP/SH2 compared to BT2/SH2): decreased affinity for Pi; also recorded: a lower affinity for the inhibitor Pi
- Ki ([2]; read-out: Ki Pi, MP/SH2, 1 mM ATP, 2 mM G-1-P, 2.5 mM 3-PGA, mean (95% confidence interval)): 6.61 mM
- Ki [3]: 2.32 mM
- Ki [4]: 5.87 mM

B1: BT2-TI: BT2 small subunit with change of amino acid 462 from threonine to isoleucine (protein)
chain: MDMALASKASPPPWNATAAEQPIPKRDKAAANDSTYLNPQAHDSVLGIILGGGAGTRLYPLTKKRAKPAVPLGANYRLIDIPVSNCLNSNISKIYVLTQFNSASLNRHLSRAYGSNIGGYKNEGFVEVLAAQQSPDNPNWFQGTADAVRQYLWLFEEHNVMEFLILAGDHLYRMDYEKFIQAHRETNADITVAALPMDEKRATAFGLMKIDEEGRIIEFAEKPKGEQLKAMMVDTTILGLDDVRAKEMPYIASMGIYVFSKDVMLQLLREQFPEANDFGSEVIPGATSIGKRVQAYLYDGYWEDIGTIAAFYNANLGITKKPIPDFSFYDRFAPIYTQPRHLPPSKVLDADVTDSVIGEGCVIKNCKINHSVVGLRSCISEGAIIEDSLLMGADYYETEADKKLLAEKGGIPIGIGKNSCIRRAIIDKNARIGDNVKILNADNVQEAAMETDGYFIKGGIVIVIKDALLPSGTVI
modifications: zea mays BT2 protein
notes: BT2 small subunit with change of amino acid 462 from threonine to isoleucine
- strength of subunit-subunit interactions (SH2): did not increase the strength of subunit-subunit interactions; also recorded: does not strengthen the subunit-subunit interactions
- kcat lower than kcat of BT2/SH2 (maize endosperm AGPase): 30%

B2: MP-TI: MP mosaic small subunit with the amino acid change of TI introduced (protein)
chain: MDMALASKASPPPWNATAAEQPIPKRDKAAANDSTYLNPQAHDSVLGIILGGGAGTRLYPLTKKRAKPAVPLGANYRLIDIPVSNCLNSNISKIYVLTQFNSASLNRHLSRAYGSNIGGYKNEGFVEVLAAQQSPDNPNWFQGTADAVRQYLWLFEEHNVMEFLILAGDHLYRMDYEKFIQAHRETNADITVAALPMDEKRATAFGLMKIDEEGRIIEFAEKPQGEQLQAMKVDTTILGLDDKRAKEMPFIASMGIYVISKDVMLNLLRDKFPGANDFGSEVIPGATSLGMRVQAYLYDGYWEDIGTIEAFYNANLGITKKPVPDFSFYDRSAPIYTQPRYLPPSKMLDADVTDSVIGEGCVIKNCKIHHSVVGLRSCISEGAIIEDSLLMGADYYETDADRKLLAAKGSVPIGIGKNCHIKRAIIDKNARIGDNVKIINKDNVQEAARETDGYFIKSGIVIVIKDALIPSGIII
modifications: zea mays MP-TI protein
notes: MP mosaic small subunit with the amino acid change of TI introduced
- glycogen produced by E. coli cells (E. coli cells): yielded an equal amount of glycogen as MP/SH2
